{"source": "patent US20250108038A1", "about": "(priority 2023, published 2025)", "key": {"[1]": {"test_system": "orexin/tTA; Tet-O diphtheria toxin A mice (DTA mice)", "format": "in vivo, mouse", "details": "6 h after dosing at ZT12; for cataplexy (C) time: Compound I-19 0.3, 1, 3 mg/kg i.p., Compound I-4 0.3, 1, 3 mg/kg p.o., Des 5 mg/kg p.o."}, "OAT3": {"target": "T1, OAT3 (Homo sapiens, UniProt Q8TCC7)", "T1 sequence (Q8TCC7 1-542)": "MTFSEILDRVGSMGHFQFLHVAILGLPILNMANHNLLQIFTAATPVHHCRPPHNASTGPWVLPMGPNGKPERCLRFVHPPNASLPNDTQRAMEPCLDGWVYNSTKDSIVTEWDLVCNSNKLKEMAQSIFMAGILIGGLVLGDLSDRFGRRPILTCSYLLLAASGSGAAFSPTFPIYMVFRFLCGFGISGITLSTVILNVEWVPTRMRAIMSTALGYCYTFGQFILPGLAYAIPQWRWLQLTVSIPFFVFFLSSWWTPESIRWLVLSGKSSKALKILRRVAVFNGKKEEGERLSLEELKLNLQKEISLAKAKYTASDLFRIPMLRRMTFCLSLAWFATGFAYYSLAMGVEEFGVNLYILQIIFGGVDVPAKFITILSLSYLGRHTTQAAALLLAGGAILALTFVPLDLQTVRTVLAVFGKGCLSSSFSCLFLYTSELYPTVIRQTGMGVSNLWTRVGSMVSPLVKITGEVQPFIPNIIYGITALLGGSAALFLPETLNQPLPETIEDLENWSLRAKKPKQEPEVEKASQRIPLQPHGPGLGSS", "assay": "Uptake transporter inhibition assay, OAT3 (estrone-3-sulfate)", "details": "for inhibition at 500 μM: human", "protocol": "Uptake experiments were performed using HEK293 cells stably expressing the respective uptake transporters. The assays were conducted according to the actual SOLVO uptake transporter assay protocols (PR-ASY-UPT-General Protocol for Uptake Transporter Inhibition Assays).\nCells were cultured at 37° C. in a humidified atmosphere containing 5% CO2 and were plated onto standard 96-well tissue culture plates.\nBefore the experiment, the medium was removed, and the cells were washed twice with 100 μL of pre-warmed (37° C.) assay buffer listed in Table 15. The cells were pre-incubated at 37° C. for 30 minutes in assay buffer containing the test article at appropriate concentrations (Table 16), appropriate solvents for solvent controls and the reference inhibitor for reference inhibitor wells. After the pre-incubation step solutions were removed. Uptake experiments were performed at 37° C. in 50 μL of assay buffer containing the probe substrate and the test article or solvent and controls.\nAfter the experiment, cells were washed twice with 100 μL of appropriate cold buffer and lysed with 150 μL scintillation cocktail. Radiolabeled probe substrate transport was determined by liquid scintillation counting.\nUptake of the probe substrate in control cells provided background activity values for all data points."}, "human red blood cells": {"test_system": "human red blood cells", "assay": "Hemolysis study in human blood", "format": "cell-based", "details": "60 min, 37° C.", "protocol": "(§1) FIG. 4A. […] Compound I-19 in human blood. Red blood cells were isolated from whole blood and resuspended in PBS. […] (final concentrations 25, 50, and 100 μM) and the mixtures were incubated at 37° C. for 60 min. After the incubation, the samples were centrifuged and the absorbance of 100 μL of supernatant was read at 410 nm. % RBC lysis is expressed relative to 100% lysis control. Values represent mean+SEM of n=3 separate experiments.\nFIG. 4B. Hemolytic Potential of Compound I-4 in human blood. Red blood cells were isolated from whole blood and resuspended in PBS. 190 μL of diluted RBC suspension and 10 μL of Compound I-4 solutions were mixed at 0 min. (final concentrations 25, 50, and 100 μM) and the mixtures were incubated at 37° C. for 60 min. After the incubation, the samples were centrifuged and the absorbance of 100 μL of supernatant was read at 410 nm. % RBC lysis is expressed relative to 100% lysis control. Values represent mean+SEM of n=3 separate experiments.\n(§2) FIG. 4C. Hemolytic Potential of Amphotericin B in human blood (positive assay control). Red blood cells were isolated from whole blood and resuspended in PBS. 190 μL of diluted RBC suspension and 10 μl of amphotericin B solutions were mixed at 0 min. (final concentrations 1, 10, 30, and 100 μM) and the mixtures were incubated at 37° C. for 60 min. After the incubation, the samples were centrifuged and the absorbance of 100 μL of supernatant was read at 410 nm. % RBC lysis is expressed relative to 100% lysis control. Values represent mean+SEM of n=3 separate experiments.\n(§3) To a clear 96-well V-bottom polystyrene plate, the test articles (10 μL) and the diluted RBCs (190 μL) from human or rat blood were mixed for final concentrations of 25, 50, and 100 μM. The reaction mixture was incubated at 37° C. for 60 min. Following the exposure period, the plates were centrifuged. After centrifugation, 70 μL of supernatant (without disturbing the pellet) was transferred to a clean and clear polystyrene flat bottomed 96-well plate and the absorbance of the sample at a single wavelength was measured using a BioTech Synergy H1 Plate Reader at a wavelength of 410 nm. The positive control for this assay was amphotericin B test at concentrations of 1, 10, 30, and 100 μM."}, "rat red blood cells": {"test_system": "rat red blood cells", "assay": "Hemolysis study in rat blood", "format": "cell-based", "details": "60 min, 37° C.", "protocol": "as §1, with “6A.” for “4A.”, “rat” for “human”\nas §1, with “6B.” for “4A.”, “rat” for “human”, “μl” for “μL”\nas §2, with “6C.” for “4C.”, “rat” for “human”, “μL” for “μl”\nas §3"}, "Wistar rats": {"test_system": "Wistar rats", "format": "in vivo, Wistar rat", "protocol": "Animals were trained in eight automated 5C-SRTT operant chambers (Med Associates, St. Albans, VT, USA), controlled by MedPC software (Med Associates). Briefly, each operant chamber was equipped with 5 apertures containing a photocell beam to detect nose pokes and a lamp (2.8 W) that could be illuminated randomly at varying durations. Food pellets (45 mg chow pellet, BioServ, Frenchtown, NJ, USA) were delivered automatically to a magazine, located on the opposite wall to the nose pokes, that was also equipped with a light that turned on to indicate that a pellet had been dispensed. The house-light remained on for the entire session unless an error or omission occurred. Training sessions began with the delivery of a food reward and retrieval triggered the first trial. […] Training began with the stimulus duration set at 10 sec, a limited hold period of 5 sec and an ITI of 5 sec. […] Sessions ended when 40 minutes had lapsed or 100 trials had been completed.\nUpon meeting the performance criteria, animals were assessed in the vSD version of the task where the following stimulus durations were presented in a pseudorandom manner: 0.3, 0.6 and 0.9 sec. Later, subjects were assessed in the vITI version where 2.5, 5.0 and 10.0 sec ITIs were employed in a pseudorandom manner. Performance parameters measured were: % hit ((# correct/(# correct+# incorrect including omissions))×100); % correct ((# correct/(# correct+# incorrect excluding omissions))×100); premature responses (# of nose-pokes into any aperture after trial initiation but before onset of the stimulus light); timeout responses (# of nose pokes into any aperture during a timeout period), perseverative responses (# of nose pokes occurring after the correct response had been made but before reward collection); # of food magazine head entries, omissions and total trials completed. The latency to correct response (time taken from the onset of the nose poke light stimulus to making the correct nose poke response), latency to incorrect response (time taken from onset of nose poke light stimulus to making the incorrect nose poke response), and latency to reward (i.e., the magazine latency, time taken from making a correct nose poke response to retrieving the reward from the magazine) was also recorded.\nDrug doses and vehicle were administered in a pseudorandom fashion. Drug or vehicle sessions were performed 1-2 times per week with maintenance training (behavioral testing without drug or vehicle injections) interspersed.\nAll data were collated and entered into Microsoft Excel spreadsheets. The data were subsequently imported into StatView 5.0 for statistical analyses. One and two factor analysis of variance (ANOVA) tests were used with repeated measures when indicated, followed by Fisher LSD or Student Newman Keuls as post-hoc tests. All results were expressed as the mean (±S.E.M.). Differences between means from experimental groups were considered significant at the p<0.05 level. The statistical F values and degrees of freedom associated with the two factor ANOVA analyses are provided in the text of this report. Please refer to the statistical reports in the appendices for the values associated with one factor ANOVAs for the overall means and overall total values."}, "[2]": {"details": "test articles 25, 50, 100 μM, amphotericin B 1, 10, 30, 100 μM"}}, "note": "Where two headings read alike, the source gives them in different places.", "data": [{"smiles": "CNCCCN1c2ccccc2CCc2ccccc21", "note": "[Desipramine, reference compound]", "values": [{"measurement": "latency to REM (effect)", "setting": "[1]", "result": "increased the latency to REM onset"}, {"measurement": "cataplexy (C) time", "setting": "[1]", "result": "decreased significantly for the first 2 h post administration but was not significant overall"}, {"measurement": "cataplexy (C) time", "setting": "[1]; listed as Des", "result": "decreased for the first 2 h post administration but was not significant overall"}, {"measurement": "REM time", "setting": "[1]; same doses", "result": "overall reduction in REM sleep did not reach significance"}]}, {"smiles": "CCCN(CCC)S(=O)(=O)c1ccc(C(=O)O)cc1", "note": "[Probenecid]", "values": [{"measurement": "Transporter specific accumulation", "setting": "OAT3; 500.00 μM nominal, E3S, Table 130", "result": "291.67 ± 17.04", "unit": "cpm"}, {"measurement": "Relative transporter specific accumulation", "setting": "OAT3; 500.00 μM, reference inhibitor", "result": "1.68 ± 0.31 % of control"}, {"measurement": "inhibition at 500 μM", "setting": "OAT3; Relative Inhibition, 500.00 μM nominal, E3S, Table 130", "result": 98, "unit": "%"}, {"measurement": "inhibition at 500 μM", "setting": "OAT3; Relative inhibition, 500.00 μM, reference inhibitor", "result": 97, "unit": "%"}]}, {"smiles": "C[C@@H]1[C@H](O)[C@@H](C)/C=C/C=C/C=C/C=C/C=C/C=C/C=C/[C@H](O[C@@H]2O[C@H](C)[C@@H](O)[C@H](N)[C@@H]2O)C[C@@H]2O[C@](O)(C[C@@H](O)C[C@@H](O)[C@H](O)CC[C@@H](O)C[C@@H](O)CC(=O)O[C@H]1C)C[C@H](O)[C@H]2C(=O)O", "note": "[amphotericin B, reference compound]", "values": [{"measurement": "EC50", "setting": "human red blood cells; read-out: EC50 (% RBC lysis)", "result": 7.06, "unit": "µM"}, {"measurement": "% RBC lysis (hemolytic potential)", "setting": "human red blood cells; [2]", "result": "dose-dependent increase in % RBC lysis"}, {"measurement": "EC50", "setting": "rat red blood cells; read-out: EC50 (% RBC lysis)", "result": 4.73, "unit": "µM"}, {"measurement": "% RBC lysis (hemolytic potential)", "setting": "rat red blood cells; [2]", "result": "dose-dependent increase in % RBC lysis"}]}, {"smiles": "CN1CCCC1c1cccnc1", "note": "(stereo not shown) [nicotine, Nicotine, reference compound]", "values": [{"measurement": "% hit rate", "setting": "Wistar rats; nicotine 0.05-0.2 mg/kg sc, Compound I-4 0.1-3.0 mg/kg ip, Compound I-19 0.03-1.0 mg/kg ip", "result": "increase in the % hit rate"}, {"measurement": "% correct", "setting": "Wistar rats; same doses", "result": "no statistically significant effects"}, {"measurement": "Magazine Head Entries", "setting": "Wistar rats; same doses", "result": "increase in the number of premature responses, timeout responses, magazine head entries"}, {"measurement": "Omissions", "setting": "Wistar rats; same doses", "result": "decrease in omissions"}, {"measurement": "number of trials completed", "setting": "Wistar rats; same doses", "result": "no effect on the total number of trials completed"}, {"measurement": "perseverative responses", "setting": "Wistar rats; same doses", "result": "no statistically significant effects on perseverative responses or reward latencies"}, {"measurement": "premature responses", "setting": "Wistar rats; same doses", "result": "the higher 2 doses of nicotine were associated with an increase"}, {"measurement": "response latencies (correct, incorrect)", "setting": "Wistar rats; same doses", "result": "modest decrease in the response latencies associated with correct responses"}, {"measurement": "reward latencies", "setting": "Wistar rats; same doses", "result": "no statistically significant effects on perseverative responses or reward latencies"}, {"measurement": "timeout responses", "setting": "Wistar rats; same doses", "result": "increase in the number of premature responses, timeout responses, magazine head entries"}]}]}
